Source: patent US20240115654A1, “INTRAVENOUS ADMINISTRATION OF ENGINEERED ANTIMICROBIAL AMPHIPHILIC PEPTIDES” (priority 2021, published 2024)
Several values for one entry are separate records, joined by “and”; a condition that tells them apart may be missing. Equal entries are not always repeated. Where two headings read alike, the source gives them in different places. Peptide text beside a SMILES is read from it.

Conditions: 30 min IV infusion
Protocol: Animals will be obtained from the Test Facility's colony of adult male cynomolgous monkeys (Macaca fascicularis) of Chinese origin. Animals will be weighed prior to dosing.
Animals will be fasted a minimum of 2 hours prior to procedures requiring the administration of ketamine anesthesia. The diet will also be supplemented with other nutrients by feeding items such as raisins or fresh fruits that are presented to the animal as part of an environmental enrichment program. Offering items known to cause diarrhea will be avoided.
Intravenous administration will be via 30 minute infusion into a temporary percutaneous catheter placed into a saphenous vein. Prior to and following dose administration, the catheter will be flushed with 0.5 mL saline prior to removal. All dosing syringes will be weighed prior to and following dosing.
Serial blood samples will be collected via femoral vein (cephalic or saphenous, as necessary). Approximately 1 mL blood samples will be collected into K2EDTA tubes.
Blood samples will be collected into K2EDTA tubes and stored on wet ice. Whole blood will be processed to plasma by centrifugation (2400-2700 rpm at 5° C.) within 30 minutes of collection. Plasma samples will be split into 2 equal aliquots and stored at −80° C. until analysis.
Prior to extraction, a known concentration of a mass-adjusted internal standard (IS) will be added to assess recovery and allow for quantitation. Purified samples will be further subjected to high-performance liquid chromatography (HPLC) using C18 300 or 130 angstrom columns prior to MS/MS analysis. Multiple charge states will be observed by MS, so MS/MS will be employed to enable multiple reaction monitoring (MRM) analyses to determine the most MRM transitions with the highest signal-to-noise gain. Compound plasma concentrations will be determined by comparing to and compensating with co-purified IS peak intensity and validated calibrated standard curves.
Toxicokinetic parameters will be calculated using non-compartmental methods as implemented in the Phoenix® WinNonlin® ver. 6.3 comprehensive TK/PK analysis software program (Pharsight Corporation; Mountain View, CA) using an IV infusion model. Toxicokinetic analysis will be conducted using a 30-minute intravenous infusion time. Therefore, 30 minutes will be added to each sample time point postdose to obtain nominal time for TK analysis. Nominal times and dosage levels will be used for all calculations. Values below the lower limit of quantitation (BLQ) will be assigned a value of zero for the toxicokinetic calculations. Microsoft® Excel® 2013 will be used for receipt of bioanalytical data, minor formatting, including setting BLQ values to “0”, transfer into WinNonlin® for TK analysis, and calculation of the mean when an approximated value will be excluded. All plasma concentration data from all animals will be included in the analysis. Graphical presentations will be performed using Prism® for Macintosh ver. 7.0a (GraphPad, Inc.; La Jolla, CA).

With `CC(C)[C@H](NC(=O)[C@H](Cc1c[nH]c2ccccc12)NC(=O)[C@H](CCCNC(=N)N)NC(=O)[C@H](CCCNC(=N)N)NC(=O)[C@@H](NC(=O)[C@@H](NC(=O)[C@H](CCCNC(=N)N)NC(=O)[C@@H](NC(=O)[C@@H](NC(=O)[C@H](CCCNC(=N)N)NC(=O)[C@H](CCCNC(=N)N)NC(=O)[C@H](Cc1c[nH]c2ccccc12)NC(=O)[C@@H](NC(=O)[C@H](CCCNC(=N)N)NC(=O)[C@H](CCCNC(=N)N)NC(=O)[C@@H](NC(=O)[C@H](CCCNC(=N)N)NC(=O)[C@H](CCCNC(=N)N)NC(=O)[C@@H](NC(=O)[C@H](Cc1c[nH]c2ccccc12)NC(=O)[C@H](CCCNC(=N)N)NC(=O)[C@@H](N)CCCNC(=N)N)C(C)C)C(C)C)C(C)C)C(C)C)C(C)C)C(C)C)C(C)C)C(=O)N[C@@H](CCCNC(=N)N)C(=O)N[C@@H](CCCNC(=N)N)C(N)=O` [SEQ ID NO: 1] (H-RRWVRRVRRVWRRVVRVVRRWVRR-NH2) the “AUCinf Extrapolated” value (1 mg/kg, Mean of group) was 10.0%, the CL (1 mg/kg, Mean of group) was 18.5 mL/min/kg and the “Dose Normalized AUClast” value (1 mg/kg, Mean of group) was 983. For the same compound, the “Dose Normalized Cmax” value (1 mg/kg, Mean of group) was 1710, the Vss (1 mg/kg, Mean of group) was 1.38 L/kg and the CL (1 mg/kg, individual monkeys) was 9.65 mL/min/kg. The “Dose Normalized AUClast” value (1 mg/kg, individual monkeys) was 740 and 1610 and 595, the “Dose Normalized Cmax” value (1 mg/kg, individual monkeys) was 1460 and 2660 and 997 and the “AUCinf Extrapolated” value (3 mg/kg, Mean of group) was 1.5%. The CL (3 mg/kg, Mean of group) was 7.18 mL/min/kg, the “Dose Normalized AUClast” value (3 mg/kg, Mean of group) was 2530 and the “Dose Normalized Cmax” value (3 mg/kg, Mean of group) was 3450. For the same compound, the T1/2 (3 mg/kg, Mean of group) was 5.2 h, the Tmax (3 mg/kg, Mean of group) was 6.6 min and the “AUCinf Extrapolated” value (3 mg/kg, individual monkeys) was 1.2% and 2.3% and 1.1%. For the same compound, the “Dose Normalized AUClast” value (3 mg/kg, individual monkeys) was 2220 and 3660 and 1710, the “Dose Normalized Cmax” value (3 mg/kg, individual monkeys) was 2280 and 5170 and 2900 and the T1/2 (3 mg/kg, individual monkeys) was 5 h. The “AUCinf Extrapolated” value (10 mg/kg, Mean of group) was 1.3%, the CL (10 mg/kg, Mean of group) was 6.32 mL/min/kg and the “Dose Normalized AUClast” value (10 mg/kg, Mean of group) was 5030. The “Dose Normalized Cmax” value (10 mg/kg, Mean of group) was 3820, the T1/2 (10 mg/kg, Mean of group) was 4.6 h and the “AUCinf Extrapolated” value (10 mg/kg, individual monkeys) was 1.0% and 1.8% and 0.99%. The CL (10 mg/kg, individual monkeys) was 7.5 mL/min/kg, the “Dose Normalized Cmax” value (10 mg/kg, individual monkeys) was 2600 and 2430 and 6430 and the T1/2 (10 mg/kg, individual monkeys) was 4.3 h and 4.9 h and 4.6 h.
